From ChEMBL document CHEMBL5512696, “Discovery of a Novel ASM Direct Inhibitor with a 1,5-Diphenyl-pyrazole Scaffold and Its Antidepressant Mechanism of Action” (J Med Chem, 2024)

Target: T1, Sphingomyelin phosphodiesterase (Homo sapiens, UniProt P17405)
T1 sequence (P17405 whole entry): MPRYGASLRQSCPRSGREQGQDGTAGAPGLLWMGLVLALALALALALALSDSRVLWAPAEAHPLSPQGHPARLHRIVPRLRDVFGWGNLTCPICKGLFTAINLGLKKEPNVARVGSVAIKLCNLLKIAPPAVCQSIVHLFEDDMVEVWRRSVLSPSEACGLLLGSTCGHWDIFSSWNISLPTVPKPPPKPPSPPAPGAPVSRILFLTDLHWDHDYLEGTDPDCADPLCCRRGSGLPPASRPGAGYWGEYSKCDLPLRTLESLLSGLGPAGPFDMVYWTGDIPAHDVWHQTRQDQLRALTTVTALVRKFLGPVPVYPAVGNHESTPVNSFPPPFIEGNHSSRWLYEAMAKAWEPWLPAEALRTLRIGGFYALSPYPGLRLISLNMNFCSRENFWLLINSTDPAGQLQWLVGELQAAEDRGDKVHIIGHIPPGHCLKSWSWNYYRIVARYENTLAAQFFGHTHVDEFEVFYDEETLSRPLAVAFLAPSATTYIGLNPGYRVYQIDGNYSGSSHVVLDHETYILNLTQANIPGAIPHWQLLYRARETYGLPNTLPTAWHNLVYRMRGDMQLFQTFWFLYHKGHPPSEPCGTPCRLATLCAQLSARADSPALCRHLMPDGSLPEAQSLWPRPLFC
Test: Inhibition of human recombinant ASM (His62 to Pro628 residues) using HMU-PC as substrate incubated for 2 hrs by fluorescence based analysis

SMILES: CCCCCCCCCCOc1cc(C(=O)NO)ccc1OC
- IC50: 1.2 µM
